Literature values in patent US7785824B2, “Hydrolysed casein product comprising tripeptides IPP and/or VPP” (Conopco Inc., priority 2003, dated 2010).
pIC50: −log10 of the molar value.

Tests used:
[1] = biological target: Angiotensin I Converting Enzyme (ACE) (Homo sapiens, UniProt P12821); conditions: concentration which results in 50% inhibition of the ACE activity
[2] = test system: hypertensive humans; conditions: in sour milk, placebo-controlled study

Chain of Angiotensin I Converting Enzyme (ACE) (P12821 30-1306, species assumed): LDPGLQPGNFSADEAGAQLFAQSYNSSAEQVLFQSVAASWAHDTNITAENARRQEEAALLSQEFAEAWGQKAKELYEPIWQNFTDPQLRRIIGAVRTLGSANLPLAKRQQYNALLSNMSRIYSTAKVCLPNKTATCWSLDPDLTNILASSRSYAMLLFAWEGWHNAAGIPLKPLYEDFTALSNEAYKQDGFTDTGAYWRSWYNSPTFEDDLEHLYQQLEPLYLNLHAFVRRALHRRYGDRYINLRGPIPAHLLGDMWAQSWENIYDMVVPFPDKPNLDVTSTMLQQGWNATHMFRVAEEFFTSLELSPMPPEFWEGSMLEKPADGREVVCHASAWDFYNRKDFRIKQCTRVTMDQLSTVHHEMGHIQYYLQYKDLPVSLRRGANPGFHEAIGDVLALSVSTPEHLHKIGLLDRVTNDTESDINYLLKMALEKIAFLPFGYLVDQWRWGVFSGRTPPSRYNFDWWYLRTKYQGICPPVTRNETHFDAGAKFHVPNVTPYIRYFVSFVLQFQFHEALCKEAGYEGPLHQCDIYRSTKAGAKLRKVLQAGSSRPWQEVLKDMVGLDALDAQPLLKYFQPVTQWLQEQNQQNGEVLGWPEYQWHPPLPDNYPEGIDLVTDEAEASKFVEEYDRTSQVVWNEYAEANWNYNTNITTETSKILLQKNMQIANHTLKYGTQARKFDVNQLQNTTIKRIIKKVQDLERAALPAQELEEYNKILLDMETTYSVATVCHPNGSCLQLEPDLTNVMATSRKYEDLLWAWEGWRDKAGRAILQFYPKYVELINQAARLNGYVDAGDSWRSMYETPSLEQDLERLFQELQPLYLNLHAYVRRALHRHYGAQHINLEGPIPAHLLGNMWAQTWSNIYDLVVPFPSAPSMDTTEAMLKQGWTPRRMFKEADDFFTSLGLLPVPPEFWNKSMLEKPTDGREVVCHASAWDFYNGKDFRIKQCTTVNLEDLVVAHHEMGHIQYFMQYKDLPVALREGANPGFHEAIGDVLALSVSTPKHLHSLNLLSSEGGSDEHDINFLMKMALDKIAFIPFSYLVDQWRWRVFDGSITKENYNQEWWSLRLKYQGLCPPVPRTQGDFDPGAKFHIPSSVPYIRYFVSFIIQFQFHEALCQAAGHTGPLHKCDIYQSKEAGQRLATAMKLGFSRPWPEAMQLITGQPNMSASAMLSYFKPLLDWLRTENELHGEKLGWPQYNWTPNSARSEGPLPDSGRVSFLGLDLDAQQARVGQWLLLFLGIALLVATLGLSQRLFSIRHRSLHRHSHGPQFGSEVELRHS

Substance | pIC50 [1] | blood pressure lowering effect [2]
Ile-Pro-Pro [IPP] | 5.30 | blood pressure lowering effect
Leu-Pro-Pro [LPP] | 5.02 | –
Val-Pro-Pro [VPP] | 5.05 | blood pressure lowering effect
